Consider one compound from paper PMC1796864, “Crystal structure of AFV3-109, a highly conserved protein from crenarchaeal viruses” (Virology Journal, 2007).

The assay deals with T1, AFV3-109 (Betalipothrixvirus acidiani, UniProt A7WKA5).
T1 construct: homodimer in solution and crystal
The assay is described as follows: tryptophan fluorescence quenching titration. Type of assay: binding. The note with it: read-out: KDapp.

On to `OCC(O)CO` [glycerol], for which the Kd is 1.7 µM.
